Measurements as given in patent publication US11395803B2, “Composition for controlled release of physiologically active substances and process for its preparation” (BIOSCREEN TECHNOLOGIES S.R.L., priority 2017, dated 2022).

Key:
[1] = Degree of ruminal bypass, in vitro (pharmaceutical dissolver / Daisy II ANKOM artificial rumen)
Procedure: In the context of the present invention, the term “ruminal by-pass” indicates the percentage amount by weight of substance reaching the animal post-ruminal area, namely the stomach and the intestine, with respect to the total amount by weight of the orally administered substance.
The experimental conditions of use were 39° C., 15 rpm, 8 hours presence in the solution with “ruminal” pH of about 6.8. • Daisy^II ANKOM: commercially available laboratory artificial rumen, for determining the degree of ruminal bypass. The experimental conditions of use were 39° C., 8 hours presence in ruminal conditions, buffer solution at “ruminal” pH with insertion of “ruminal inoculum” and re-creation of ruminal anaerobiosis according to a university procedure known to those skilled in the art. The pH normally tested in the quality control phase is 6.8. • Pharmaceutical dissolver for determining the degree of post-ruminal digestibility. The experimental conditions of use followed the procedure known to experts in the field as “Boisen Test” and, in particular, they were: • 39° C., 30 rpm, 2 h, buffer solution with “gastric” pH (2.0)+pepsin inoculum. • 39° C., 30 rpm, 4 h, buffer solution with “intestinal” pH (6.8)+pancreatine inoculum. • 39° C., 30 rpm, 18 h, buffer solution with “intestinal” pH (6.8)+lipase and bile extract inoculum.
Then the microgranules were subjected to an evaluation of the degree of ruminal by-pass, post-ruminal digestibility and total bioavailability using the Boisen method. For a complete description of the Boisen method, reference is made to the publication S. Boisen, J. A. Fernàndez “Prediction of total tract digestibility of energy feedstuffs and […] by in vitro analyses” Animal Feed Science Technology 68, 277-286, 1997.

[2] = Total bioavailability, in vitro (combination of ruminal bypass and post-ruminal digestibility, Boisen method)
[3] = Post-ruminal digestibility, in vitro (pharmaceutical dissolver, Boisen Test)
Procedure: Whereas, the term “post-ruminal digestibility” of a substance means the percentage amount by weight of substance that is freed from the coating exclusively in the post-ruminal tract, dissolving and so making it digestible or absorbable, with respect to the total amount by weight of the orally administered substance.
The experimental conditions of use were 39° C., 15 rpm, 8 hours presence in the solution with “ruminal” pH of about 6.8. • Daisy^II ANKOM: commercially available laboratory artificial rumen, for determining the degree of ruminal bypass. The experimental conditions of use were 39° C., 8 hours presence in ruminal conditions, buffer solution at “ruminal” pH with insertion of “ruminal inoculum” and re-creation of ruminal anaerobiosis according to a university procedure known to those skilled in the art. The pH normally tested in the quality control phase is 6.8. • Pharmaceutical dissolver for determining the degree of post-ruminal digestibility. The experimental conditions of use followed the procedure known to experts in the field as “Boisen Test” and, in particular, they were: • 39° C., 30 rpm, 2 h, buffer solution with “gastric” pH (2.0)+pepsin inoculum. • 39° C., 30 rpm, 4 h, buffer solution with “intestinal” pH (6.8)+pancreatine inoculum. • 39° C., 30 rpm, 18 h, buffer solution with “intestinal” pH (6.8)+lipase and bile extract inoculum. […]

[4] = theoretical administration of 100 g of choline chloride
[5] = theoretical administration of 200 g of product

C[N+](C)(C)CCO.[Cl-] [Product A, choline chloride]
Bypassed Choline Chloride [1, 4]: 0 g
Choline Chloride lost in the rumen in 8 h [1, 4]: 101 g
Bypassed Choline Chloride [1, 5]: 0 g
Choline Chloride lost in the rumen in 8 h [1, 5]: 198 g
Bioavailable Choline Chloride [2, 4]: 0 g
Bioavailable Choline Chloride [2, 5]: 0 g
Choline Chloride in faeces [3, 4]: 0 g
Choline Chloride in faeces [3, 5]: 0 g
